From US20160038565A1, “Methods of Mitigating Side Effects of Radiation Exposure and Chemotherapy” (Gencia Corporation, priority 2012, published 2016)

Assays:
[1] = Doxorubicin toxicity in naive mice (body weight, food intake, survival); type: in vivo, C57/BL6 mice; details: doxorubicin 25 mg/kg
Description: Two of four groups of five naive C57/BL6 mice were treated with doxorubicin (dox) at dose of 25 mg/kg, whereas the other two groups were left untreated. To assess PTD−TFAM's ability to ameliorate the toxic effects of Doxorubicin one group each of the dox-treated and untreated animals received PTD−TFAM at a dose of 0.3mg/kg on the same day as they were treated with Doxorubicin and every four days for two weeks thereafter (indicated with arrows in FIG. 1). Concurrently mice in the last two groups (one treated and one untreated with Doxorubicin) received vehicle alone (100 μl of 50% sorbitol, 2×PBS). To assess toxicity of the Doxorubicin treatment, mice were weighed once daily.
Each treatment group was housed together in cage separate from the other treatment group(s). The animals in each case share a food hopper. Food intake was evaluated on a group-by-group basis by weighing each group's food once daily. The difference in food weight between two days provides a rough estimate of the group's food intake during the period between two measurements (i.e, a day).

[2] = test system: orthotopic MiaPaca-2 xenografts; test: Gemcitabine toxicity in orthotopic model of pancreatic cancer; type: in vivo, BALB/c nude mouse; details: gemcitabine 40 mg/kg every 3 days
Description: MiaPaCa-2 tumor cells was maintained in vitro as monolayer culture in DMEM medium supplemented with 10% fetal bovine serum, 2.5% horse serum, 100 U/ml penicillin and 100 μg/m1 streptomycin, and 2 mM L-glutamine at 37° C. in an atmosphere of 5% CO2 in air. The tumor cells were routinely subcultured twice weekly by trypsin-EDTA treatment. Cells in an exponential growth phase will be harvested and counted for tumor inoculation. Before orthotopic implantation, 5×10^6 MiaPaca-2 cells in 50 μl PBS mixed with 50 μl Matrigel were inoculated subcutaneously at the right flank of each BALB/c nude mouse. Upon subcutaneous tumor size reaching about 500 mm^3, tumors were collected for orthotopic implantation.
For orthotopic MiaPaca-2 xenografts, mice were anesthetized by intraperitoneal injection of pentobarbital sodium (50 mg/kg) before tumor inoculation. The abdominal skin was sterilized and laparotomy was performed to expose the pancreas. Each mouse was inoculated with a subcutaneous MiaPaca-2 tumor fragment (2-3 mm in diameter) in the subcapsular region of the pancreas for tumor development. The abdominal wall was closed using No. 6 suture and then sterilized with povidone iodine solution. The day of surgery was denoted as Day 0 (DO). […] The body weight of each mouse was measured on treatment days 1, 5, 8, 12, 15, 19 and 22. […]

Row | Structure (SMILES) | deaths / survival ([1]; PTD-TFAM 0.3 mg/kg every four days, five mice per group) | food consumed by the group combined during days 6-8 ([1]; per cage of five mice) | mice dead by day 22 [2] [%]
1 | COc1cccc2c1C(=O)c1c(O)c3c(c(O)c1C2=O)C[C@@](O)(C(=O)CO)C[C@@H]3O[C@H]1C[C@H](N)[C@H](O)[C@H](C)O1 [dox, doxorubicin] | One of the mice in dox only treatment group began to gain weight, but died on day 14 | less than two grams | 
2 | Nc1ccn([C@@H]2O[C@H](CO)[C@@H](O)C2(F)F)c(=O)n1 [gemcitabine] |  |  | 50
